Results as given in patent US8497240B2 (priority 2006, dated 2013).
Where two headings read alike, the source gives them in different places.

How the values were obtained:
[1] = type: in vivo, NIH/Swiss mice; settings: 80 nmol/kg, AUC240
Procedure: (§1) In FIG. 3A, bars represent mean±sd, n=6-10. […] Gavage (1.5 g/kg) was given at t=0, Sample was taken at t=30 min. […] In FIG. 3B, points represent mean±sem, n=8-15.
Points represent mean±sem.

[2] = type: in vivo, NIH/Swiss mice
Procedure: as §1
Peptide was injected IP at t=−5 minutes into 4-hour fasted NIH/Swiss female mice. […] In FIG. 17 points represent mean+/−sem. […] Samples were taken at t=60, t=120 and t=180.

| SMILES | OGTT/GL (%) ([2]; 30 nmol/kg) | OGTT/GL (%) ([2]; 350 nmol/kg) | other results |
| --- | --- | --- | --- |
| CC[C@H](C)[C@H](NC(=O)[C@H](CO)NC(=O)[C@H](Cc1ccc(O)cc1)NC(=O)[C@H](CC(=O)O)NC(=O)[C@H](CO)NC(=O)[C@@H](NC(=O)[C@H](Cc1ccccc1)NC(=O)[C@@H](NC(=O)CNC(=O)[C@H](CCC(=O)O)NC(=O)[C@@H](C)NC(=O)[C@@H](N)Cc1ccc(O)cc1)[C@@H](C)O)[C@@H](C)CC)C(=O)N[C@@H](C)C(=O)N[C@@H](CCSC)C(=O)N[C@@H](CC(=O)O)C(=O)N[C@@H](CCCCN)C(=O)N[C@H](C(=O)N[C@@H](Cc1c[nH]cn1)C(=O)N[C@@H](CCC(N)=O)C(=O)N[C@@H](CCC(N)=O)C(=O)N[C@@H](CC(=O)O)C(=O)N[C@@H](Cc1ccccc1)C(=O)N[C@H](C(=O)N[C@@H](CC(N)=O)C(=O)N[C@@H](Cc1c[nH]c2ccccc12)C(=O)N[C@@H](CC(C)C)C(=O)N[C@@H](CC(C)C)C(=O)N[C@@H](C)C(=O)N[C@@H](CCC(N)=O)C(=O)N[C@@H](CCCCN)C(=O)N[C@H](C(=O)N[C@@H](CO)C(=O)N1CCC[C@H]1C(=O)N1CCC[C@H]1C(=O)N1CCC[C@H]1C(N)=O)[C@@H](C)O)C(C)C)[C@@H](C)CC [0601GIP4345] | −14 @ 30 nmol/kg % |  | Basal Glucose Lowering at Peptide Conc. of 80 nmol/kg [1]: −11%, AUC240; OGTT/GL (%) ([2]; 250 nmol/kg): −25 @ 250 nmol/kg, % |
| CC[C@H](C)[C@H](NC(=O)[C@H](CO)NC(=O)[C@H](Cc1ccc(O)cc1)NC(=O)[C@H](CC(=O)O)NC(=O)[C@H](CO)NC(=O)[C@@H](NC(=O)[C@H](Cc1ccccc1)NC(=O)[C@@H](NC(=O)CNC(=O)[C@H](CCC(=O)O)NC(=O)[C@@H](C)NC(=O)[C@H](Cc1ccc(O)cc1)NC(=O)OCC(C)C)[C@@H](C)O)[C@@H](C)CC)C(=O)N[C@@H](C)C(=O)N[C@@H](CCSC)C(=O)N[C@@H](CC(=O)O)C(=O)N[C@@H](CCCCN)C(=O)N[C@H](C(=O)N[C@@H](Cc1c[nH]cn1)C(=O)N[C@@H](CCC(N)=O)C(=O)N[C@@H](CCC(N)=O)C(=O)N[C@@H](CC(=O)O)C(=O)N[C@@H](Cc1ccccc1)C(=O)N[C@H](C(=O)N[C@@H](CC(N)=O)C(=O)N[C@@H](Cc1c[nH]c2ccccc12)C(=O)N[C@@H](CC(C)C)C(=O)N[C@@H](CC(C)C)C(=O)N[C@@H](C)C(=O)N[C@@H](CCC(N)=O)C(=O)N[C@@H](CCCCN)C(=O)N1CCC[C@H]1C(=O)N[C@@H](CO)C(=O)N[C@@H](CO)C(=O)NCC(=O)N[C@@H](C)C(=O)N1CCC[C@H]1C(=O)N1CCC[C@H]1C(=O)N1CCC[C@H]1C(=O)N[C@@H](CO)C(N)=O)C(C)C)[C@@H](C)CC [Compound 0601GIP4180] | −11, 30% |  |  |
| CC[C@H](C)[C@H](NC(=O)[C@H](CCCCN)NC(=O)[C@H](CC(=O)O)NC(=O)[C@H](CCSC)NC(=O)[C@@H](NC(=O)[C@@H](NC(=O)[C@H](CO)NC(=O)[C@H](Cc1ccc(O)cc1)NC(=O)[C@H](CC(=O)O)NC(=O)[C@H](CO)NC(=O)[C@@H](NC(=O)[C@H](Cc1ccccc1)NC(=O)[C@@H](NC(=O)CNC(=O)[C@H](CCC(=O)O)NC(=O)[C@@H](C)NC(=O)[C@@H](N)Cc1ccc(O)cc1)[C@@H](C)O)[C@@H](C)CC)[C@@H](C)CC)[C@@H](C)O)C(=O)N[C@@H](Cc1c[nH]cn1)C(=O)N[C@@H](CCC(N)=O)C(=O)N[C@@H](CCC(N)=O)C(=O)N[C@@H](CC(=O)O)C(=O)N[C@@H](Cc1ccccc1)C(=O)N[C@H](C(=O)N[C@@H](CC(N)=O)C(=O)N[C@@H](Cc1c[nH]c2ccccc12)C(=O)N[C@@H](CC(C)C)C(=O)N[C@@H](CC(C)C)C(=O)N[C@@H](C)C(=O)N[C@@H](CCC(N)=O)C(=O)N[C@@H](CCCCN)C(=O)N1CCC[C@H]1C(=O)N[C@@H](CO)C(=O)N[C@@H](CO)C(=O)NCC(=O)N[C@@H](C)C(=O)N1CCC[C@H]1C(=O)N1CCC[C@H]1C(=O)N1CCC[C@H]1C(=O)N[C@@H](CO)C(N)=O)C(C)C [Compound 0601GIP4213] |  | −17 |  |
| CC[C@H](C)[C@H](NC(=O)[C@H](CO)NC(=O)[C@H](Cc1ccc(O)cc1)NC(=O)[C@H](CC(=O)O)NC(=O)[C@H](CO)NC(=O)[C@@H](NC(=O)[C@H](Cc1ccccc1)NC(=O)[C@@H](NC(=O)CNC(=O)[C@H](CCC(=O)O)NC(=O)[C@@H](C)NC(=O)[C@@H](N)Cc1ccc(O)cc1)[C@@H](C)O)[C@@H](C)CC)C(=O)N[C@@H](C)C(=O)N[C@@H](CCSC)C(=O)N[C@@H](CC(=O)O)C(=O)N[C@@H](CCCCN)C(=O)N[C@H](C(=O)N[C@@H](Cc1c[nH]cn1)C(=O)N[C@@H](CCC(N)=O)C(=O)N[C@@H](CCC(N)=O)C(=O)N[C@@H](CC(=O)O)C(=O)N[C@@H](Cc1ccccc1)C(=O)N[C@H](C(=O)N[C@@H](CC(N)=O)C(=O)N[C@@H](Cc1c[nH]c2ccccc12)C(=O)N[C@@H](CC(C)C)C(=O)N[C@@H](CC(C)C)C(=O)N[C@@H](C)C(=O)N[C@@H](CCC(N)=O)C(=O)N[C@@H](CCCCN)C(=O)N1CCC[C@H]1C(=O)N[C@@H](CO)C(=O)N[C@@H](CCCCN)C(=O)N[C@@H](CCC(=O)O)C(=O)N[C@H](C(=O)N[C@H](C(=O)N[C@@H](CO)C(N)=O)[C@@H](C)CC)[C@@H](C)CC)C(C)C)[C@@H](C)CC [Compound 0601GIP4234] |  | −17 |  |
| CC[C@H](C)[C@H](NC(=O)[C@H](CO)NC(=O)[C@H](Cc1ccc(O)cc1)NC(=O)[C@H](CC(=O)O)NC(=O)[C@H](CO)NC(=O)[C@@H](NC(=O)[C@H](Cc1ccccc1)NC(=O)[C@@H](NC(=O)CNC(=O)[C@H](CCC(=O)O)NC(=O)[C@@H](C)NC(=O)[C@@H](N)Cc1ccc(O)cc1)[C@@H](C)O)[C@@H](C)CC)C(=O)N[C@@H](C)C(=O)N[C@@H](CCSC)C(=O)N[C@@H](CC(=O)O)C(=O)N[C@@H](CCCCN)C(=O)N[C@H](C(=O)N[C@@H](Cc1c[nH]cn1)C(=O)N[C@@H](CCC(N)=O)C(=O)N[C@@H](CCC(N)=O)C(=O)N[C@@H](CC(=O)O)C(=O)N[C@@H](Cc1ccccc1)C(=O)N[C@H](C(=O)N[C@@H](CC(N)=O)C(=O)N[C@@H](Cc1c[nH]c2ccccc12)C(=O)N[C@@H](CC(C)C)C(=O)N[C@@H](CC(C)C)C(=O)N[C@@H](C)C(=O)N[C@@H](CCC(N)=O)C(=O)N[C@@H](CCCCN)C(=O)N[C@H](C(=O)N[C@@H](CO)C(=O)N1CCC[C@H]1C(=O)N[C@@H](CCCNC(=N)N)C(=O)N1CCC[C@H]1C(=O)N1CCC[C@H]1C(=O)N[C@@H](CO)C(N)=O)[C@@H](C)O)C(C)C)[C@@H](C)CC [Compound 0601GIP4236] |  | −16 |  |
| CC[C@H](C)[C@H](NC(=O)[C@H](CO)NC(=O)[C@H](Cc1ccc(O)cc1)NC(=O)[C@H](CC(=O)O)NC(=O)[C@H](CO)NC(=O)[C@@H](NC(=O)[C@H](Cc1ccccc1)NC(=O)[C@@H](NC(=O)CNC(=O)[C@H](CC(=O)O)NC(=O)[C@H](C)NC(=O)[C@@H](N)Cc1ccc(O)cc1)[C@@H](C)O)[C@@H](C)CC)C(=O)N[C@@H](C)C(=O)N[C@@H](CCSC)C(=O)N[C@@H](CC(=O)O)C(=O)N[C@@H](CCCCN)C(=O)N[C@H](C(=O)N[C@@H](Cc1c[nH]cn1)C(=O)N[C@@H](CCC(N)=O)C(=O)N[C@@H](CCC(N)=O)C(=O)N[C@@H](CC(=O)O)C(=O)N[C@@H](Cc1ccccc1)C(=O)N[C@H](C(=O)N[C@@H](CC(N)=O)C(=O)N[C@@H](Cc1c[nH]c2ccccc12)C(=O)N[C@@H](CC(C)C)C(=O)N[C@@H](CC(C)C)C(=O)N[C@@H](C)C(=O)N[C@@H](CCC(N)=O)C(=O)N[C@@H](CCCCN)C(=O)N1CCC[C@H]1C(=O)N[C@@H](CCCCN)C(=O)N[C@@H](CCCCN)C(=O)N[C@H](C(=O)N[C@@H](CCCNC(=N)N)C(=O)N[C@@H](Cc1ccc(O)cc1)C(=O)N[C@@H](CO)C(N)=O)[C@@H](C)CC)C(C)C)[C@@H](C)CC [Compound 0601GIP4390] | 1, 30% |  |  |
